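All cell lines were grown in 96-well plates and treated with compound for 48 hours. Abbreviation: GI50, concentration required for 50% inhibition of growth.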 Active and inactive are the calls of the source. Rule as the data show it: active = GI50 up to about 1.1 µM and inactive = higher.
Assays:
Test in all cases: NCI anticancer screen, dose series, 48 h
HOP-62 = tested on: HOP-62
EKVX = tested on: EKVX
A549 = tested on: A549
MDA-N = tested on: MDA-N
UACC-257 = tested on: UACC-257
COLO 205 = tested on: COLO 205
SF-268 = tested on: SF-268
IGROV-1 = tested on: IGROV-1
NCI-H460 = tested on: NCI-H460
NCI-H522 = tested on: NCI-H522
HT-29 = tested on: HT-29
HCT-15 = tested on: HCT-15
T47D = tested on: T47D
ACHN = tested on: ACHN
DU-145 = tested on: DU-145
SK-OV-3 = tested on: SK-OV-3
PC-3 = tested on: PC-3
SR = tested on: SR
OVCAR-3 = tested on: OVCAR-3
OVCAR-8 = tested on: OVCAR-8
MOLT-4 = tested on: MOLT-4
HOP-92 = tested on: HOP-92
Malme-3M = tested on: Malme-3M
SF-295 = tested on: SF-295
MDA-MB-231 = tested on: MDA-MB-231
NCI/ADR-RES = tested on: NCI/ADR-RES
UACC-62 = tested on: UACC-62
SW-620 = tested on: SW-620
SK-MEL-5 = tested on: SK-MEL-5
M14 = tested on: M14
SNB-75 = tested on: SNB-75
SN12C = tested on: SN12C
Hs-578T = tested on: Hs-578T
HCT-116 = tested on: HCT-116
LOX IMVI = tested on: LOX IMVI
OVCAR-4 = tested on: OVCAR-4
SK-MEL-2 = tested on: SK-MEL-2
RXF 393 = tested on: RXF 393
CCRF-CEM = tested on: CCRF-CEM
KM12 = tested on: KM12
A498 = tested on: A498
786-0 = tested on: 786-0
U-251 = tested on: U-251
K562 = tested on: K562
CAKI-1 = tested on: CAKI-1
NCI-H226 = tested on: NCI-H226
NCI-H23 = tested on: NCI-H23
SF-539 = tested on: SF-539
TK-10 = tested on: TK-10
SNB-19 = tested on: SNB-19
MDA-MB-435 = tested on: MDA-MB-435
UO-31 = tested on: UO-31
HCC 2998 = tested on: HCC 2998
OVCAR-5 = tested on: OVCAR-5
RPMI-8226 = tested on: RPMI-8226
HL-60 = tested on: HL-60
SK-MEL-28 = tested on: SK-MEL-28
MCF7 = tested on: MCF7

Measured: GI50

CC(C)c1cc(C(C)C)c(B(c2ccccc2)c2ccccc2)c(C(C)C)c1B(c1ccccc1)c1ccccc1
> 100 µM: HCT-15
inactive: HOP-62 > 100 µM | EKVX > 100 µM | A549 > 100 µM | MDA-N > 100 µM | UACC-257 > 100 µM | COLO 205 > 100 µM | SF-268 > 100 µM | IGROV-1 > 100 µM | NCI-H460 > 100 µM | NCI-H522 > 100 µM | HT-29 > 100 µM | T47D > 100 µM | ACHN > 100 µM | DU-145 > 100 µM | SK-OV-3 > 100 µM | PC-3 > 100 µM | SR > 100 µM | OVCAR-3 > 100 µM | OVCAR-8 > 100 µM | MOLT-4 > 100 µM | HOP-92 > 100 µM | Malme-3M > 100 µM | SF-295 > 100 µM | MDA-MB-231 > 100 µM | NCI/ADR-RES > 100 µM | UACC-62 > 100 µM | SW-620 > 100 µM | SK-MEL-5 > 100 µM | M14 > 100 µM | SNB-75 > 100 µM | SN12C > 100 µM | Hs-578T > 100 µM | HCT-116 > 100 µM | LOX IMVI > 100 µM | OVCAR-4 > 100 µM | SK-MEL-2 > 100 µM

CC1=CC(=O)c2cccc(NC3=NCCO3)c21
49.4 µM: HCT-15
inactive: HOP-62 > 100 µM | EKVX > 100 µM | A549 81.7 µM | MDA-N 27.7 µM | RXF 393 48.9 µM | CCRF-CEM 42 µM | COLO 205 41.1 µM | KM12 30.4 µM | SF-268 > 100 µM | IGROV-1 36.1 µM | NCI-H460 31.3 µM | NCI-H522 69.8 µM | A498 38 µM | HT-29 34 µM | 786-0 86.5 µM | U-251 64 µM | T47D 68.7 µM | K562 34.5 µM | ACHN 86.7 µM | CAKI-1 > 100 µM | NCI-H226 29 µM | DU-145 74.1 µM | SK-OV-3 > 100 µM | NCI-H23 43.5 µM | PC-3 46.6 µM | SR 38.2 µM | SF-539 46.8 µM | OVCAR-3 25.4 µM | TK-10 > 100 µM | MOLT-4 32.7 µM | HOP-92 36.1 µM | Malme-3M 30.6 µM | SF-295 > 100 µM | SNB-19 > 100 µM | MDA-MB-231 32.4 µM | NCI/ADR-RES 29.5 µM | UACC-62 > 100 µM | MDA-MB-435 31.6 µM | UO-31 76.6 µM | SW-620 > 100 µM | SK-MEL-5 23.2 µM | M14 47.3 µM | SNB-75 52.6 µM | HCC 2998 33.4 µM | OVCAR-5 > 100 µM | SN12C 52.7 µM | RPMI-8226 45.1 µM | Hs-578T 76.9 µM | HL-60 19.7 µM | HCT-116 33.6 µM | SK-MEL-28 78.7 µM | LOX IMVI 37.8 µM | OVCAR-4 78.7 µM | SK-MEL-2 97.1 µM

CCOC(=O)CNC(=O)C(C)NC(=O)C(NC(=O)CC(c1ncc[nH]1)c1ncc[nH]1)C(C)CC (configuration not stated)
inactive: EKVX > 100 µM | A549 > 100 µM | MDA-N > 100 µM | CCRF-CEM > 100 µM | UACC-257 > 100 µM | COLO 205 > 100 µM | KM12 > 100 µM | SF-268 > 100 µM | IGROV-1 > 100 µM | NCI-H460 > 100 µM | NCI-H522 > 100 µM | A498 > 100 µM | 786-0 > 100 µM | U-251 > 100 µM | T47D > 100 µM | K562 > 100 µM | ACHN > 100 µM | CAKI-1 > 100 µM | DU-145 > 100 µM | SK-OV-3 > 100 µM | NCI-H23 > 100 µM | SR > 100 µM | SF-539 > 100 µM | OVCAR-3 > 100 µM | TK-10 > 100 µM | OVCAR-8 > 100 µM | MCF7 > 100 µM | MOLT-4 > 100 µM | HOP-92 > 100 µM | Malme-3M > 100 µM | SF-295 > 100 µM | SNB-19 > 100 µM | MDA-MB-231 > 100 µM | NCI/ADR-RES > 100 µM | UACC-62 > 100 µM | MDA-MB-435 > 100 µM | UO-31 > 100 µM | SW-620 > 100 µM | M14 84.9 µM | SNB-75 > 100 µM | HCC 2998 > 100 µM | OVCAR-5 > 100 µM | SN12C > 100 µM | RPMI-8226 > 100 µM | Hs-578T > 100 µM | HL-60 > 100 µM | HCT-116 > 100 µM | SK-MEL-28 > 100 µM | LOX IMVI > 100 µM | OVCAR-4 63.7 µM | SK-MEL-2 > 100 µM
> 100 µM: HCT-15

Nc1ccc(C2NC(=O)Cc3c2ccc2ccccc32)cc1 (configuration not stated)
inactive: HOP-62 56.2 µM | EKVX 84.7 µM | A549 33.2 µM | MDA-N 67.5 µM | CCRF-CEM 80 µM | UACC-257 > 100 µM | COLO 205 76.2 µM | KM12 > 100 µM | SF-268 89.5 µM | IGROV-1 > 100 µM | NCI-H460 71.1 µM | NCI-H522 > 100 µM | A498 > 100 µM | HT-29 > 100 µM | U-251 > 100 µM | T47D 34.1 µM | K562 > 100 µM | ACHN 58.1 µM | CAKI-1 79.4 µM | NCI-H226 34.4 µM | DU-145 > 100 µM | SK-OV-3 > 100 µM | NCI-H23 > 100 µM | PC-3 45.8 µM | SR > 100 µM | SF-539 90.6 µM | OVCAR-3 26.1 µM | TK-10 > 100 µM | OVCAR-8 56.1 µM | MCF7 76 µM | MOLT-4 > 100 µM | HOP-92 > 100 µM | Malme-3M 47 µM | SF-295 45.5 µM | SNB-19 > 100 µM | UACC-62 66.1 µM | MDA-MB-435 68.5 µM | UO-31 32.1 µM | SW-620 > 100 µM | SK-MEL-5 61.8 µM | M14 89.9 µM | SNB-75 > 100 µM | HCC 2998 69 µM | OVCAR-5 > 100 µM | RPMI-8226 > 100 µM | Hs-578T 46.5 µM | HL-60 35.2 µM | HCT-116 81.1 µM | SK-MEL-28 > 100 µM | LOX IMVI > 100 µM | OVCAR-4 40.3 µM | SK-MEL-2 > 100 µM
84.1 µM: HCT-15

From ChEMBL document CHEMBL1201862, “PubChem BioAssay data set” (2004)
